Results reported in patent US20110207779A1, “PROCESS FOR THE PREPARATION OF ESOMEPRAZOLE MAGNESIUM” (GLENMARK GENERICS LTD, priority 2010, published 2011).

Experiment: R-isomer content of formulated esomeprazole magnesium dihydrate after incubation in a closed container (chiral HPLC)
Type: physicochemical
Settings: formulated in above mentioned dosage forms (capsules, mini-tablets); incubated in a closed container; temperature and time not given
Protocol: The content of R-isomer in esomeprazole magnesium dihydrate was measured by chiral high performance liquid chromatography equipped with quaternary gradient pumps, variable wavelength UV detector attached with data recorder and integrator software under the following conditions:
Buffer preparation: mix 70 mL of 156.0 g/l solution of sodium dihydrogen phosphate R with 20 mL of a 179.1 g/l solution of disodium hydrogen phosphate R. Dilute with water to 1000 mL and then dilute 250 mL of this solution with water to 1000 ml. Mobile phase: Acetonitrile: buffer solution pH 6.0 (65:435, v/v).

SMILES: COc1ccc2[n-]c([S@@+]([O-])Cc3ncc(C)c(OC)c3C)nc2c1.COc1ccc2[n-]c([S@@+]([O-])Cc3ncc(C)c(OC)c3C)nc2c1.O.O.[Mg+2] [Esomeprazole magnesium dihydrate, esomeprazole magnesium dihydrate]
- R-isomer content after formulation and incubation (chiral stability): remains within the range of R-isomer content
